Data: patent US8895282B2, “Use of a substance for manufacturing of a medicament for treatment of common cold” (Tanomed AB, priority 2008, dated 2014)
Where “and” joins values, the source holds several entries; their conditions need not be identical. Equal entries are not always repeated. Where two headings read alike, the source gives them in different places.

Tests used:
WI 38 cells [1] = system: WI 38 cells
Procedure: (§1) Cell culture: Human lung cell fibroblasts (WI 38, ATCC-CCL-75) was used for cytopathic effect detection. 10-fold serial dilutions had been made from the concentrated viral suspension. […] Then the media was changed to RPMI with 2% of fetal calf serum, which was preserved during the assay. The cells were incubated in CO2enriched air at 37° C. During the experiments a cell culture of 17th-18^thpassage was used.
(§2) In table 1 the content of each of the 10 vials (Eppendorf) is listed. The vials were incubated in a heater keeping a stable temperature of 37° C. 1000 U of catalase was added after 15, 30 and 60 min of incubation. 2×50 μl from each vial was transferred to duplicate cell wells (a 96-well plate).

Rhinovirus 7 [2] = system: Rhinovirus 7
Procedure: Virus: Rhinovirus 7, purchased from ATCC (VR-1117), was used as a representative for the rhinovirus group. In the assays the dilutions 10^−2 and 10^−3 were used. […] 0.3 ml of each dilution was added into the vials.
as §1
Catalase: From Sigma-Aldrich™. A solution of 100 000 U/ml was prepared from the original solution of 10^6 U/ml.
H2O2: a 20% solution was diluted in Phosphate buffered saline (PBS) to a 0.5% and a 0.05% solution. 0.1 ml was added to the vials, which means 0.05% or 0.005% in the vials.
A solution of 200 U/ml and 600 U/ml was prepared from the original solution of 6000 U/ml.
In order to evaluate whether the effect of the hydrogen peroxide was a direct effect on the virus itself or a cytoprotective effect, we preincubated the virus with the hydrogen peroxide, before it was transferred to the wells with the cells. The WI 38 cells are also sensitive to hydrogen peroxide, and therefore it was necessary to add catalase before inoculation into the wells. […] This design would also reveal if the inhibitory effect was only a virostatic one, or if it could damage the virions irreversibly.
as §2

Rhinovirus 7 [3] = conditions: b7: RV7 preincubated 30 min with 0.01% hydrogen peroxide, then catalase
Procedure: (§3) Virus concentration=dil 2. Incubation during 30 min in heater keeping 37° C. After 30 min the effect of the hydrogen peroxide is aborted with the addition of 0.1 ml catalase solution into the vial (=1 kU/ml). • 0.7 ml 5% glucose solution+0.1 ml dil 1 of RV7 (=a7) or RV8 (=a8)+0.1 ml of the hydrogen peroxide solution (=final concentration in the vial=[…]). Incubation and abortion of the hydrogen peroxide effect similar as in a).
(§4) Altogether 4 vials (Eppendorff): a7, a8, b7 and b8.
(§5) After the addition of catalase, samples are transferred to a 96-well plate with flat bottom according to table 3.

Rhinovirus 8 = conditions: 50 μl b8: RV8 preincubated 30 min with 0.01% hydrogen peroxide, then catalase
Procedure: as §3, §4, §5

WI 38 cells [4] = system: WI 38 cells; remark: listed apart in the source
Procedure: as §3, §5

[5] = 0.005% H2O2, RV 7 dil 10^−2, preincubation 15 min
[6] = 0.005% H2O2, RV 7 dil 10^−2, preincubation 30 min
[7] = 0.005% H2O2, RV 7 dil 10^−2, preincubation 60 min
[8] = 0.005% H2O2, RV 7 dil 10^−3, preincubation 15 min
[9] = 0.005% H2O2, RV 7 dil 10^−3, preincubation 30 min
[10] = 0.005% H2O2, RV 7 dil 10^−3, preincubation 60 min
[11] = 0.05% H2O2, RV 7 dil 10^−2, preincubation 15 min
[12] = 0.05% H2O2, RV 7 dil 10^−2, preincubation 30 min
[13] = 0.05% H2O2, RV 7 dil 10^−2, preincubation 60 min
[14] = 0.05% H2O2, RV 7 dil 10^−3, preincubation 15 min
[15] = 0.05% H2O2, RV 7 dil 10^−3, preincubation 30 min
[16] = 0.05% H2O2, RV 7 dil 10^−3, preincubation 60 min

In the case of `OO` [H2O2, hydrogen peroxide], the “Day 3 (toxic effect on WI 38 cells, control)” value (WI 38 cells [1]) is reported as “TOX”, the “Day 5 (toxic effect on WI 38 cells, control)” value (WI 38 cells [1]) is reported as “TOX” and the “Day 7 (toxic effect on WI 38 cells, control)” value (WI 38 cells [1]) is reported as “TOX”. The “Toxic effect on WI 38 cells” value (WI 38 cells [1]) was “severe toxic effect”, the “Inactivation of RV 7” value (Rhinovirus 7 [2]; 0.005% (2 mM) hydrogen peroxide, higher concentration of RV 7) was “not able to inactivate” and the “Day 3 (cytopathic effect of RV 7 on WI 38 cells)” value (Rhinovirus 7 [2]; [5]) was “+”. The “Day 5 (cytopathic effect of RV 7 on WI 38 cells)” value (Rhinovirus 7 [2]; [5]) was “++”, the “Day 7 (cytopathic effect of RV 7 on WI 38 cells)” value (Rhinovirus 7 [2]; [5]) was “++” and the “Day 3 (cytopathic effect of RV 7 on WI 38 cells)” value (Rhinovirus 7 [2]; [6]) was “+”. The “Day 5 (cytopathic effect of RV 7 on WI 38 cells)” value (Rhinovirus 7 [2]; [6]) was “+”, the “Day 7 (cytopathic effect of RV 7 on WI 38 cells)” value (Rhinovirus 7 [2]; [6]) was “++” and the “Day 3 (cytopathic effect of RV 7 on WI 38 cells)” value (Rhinovirus 7 [2]; [7]) was “+”. The “Day 5 (cytopathic effect of RV 7 on WI 38 cells)” value (Rhinovirus 7 [2]; [7]) was “+”, the “Day 7 (cytopathic effect of RV 7 on WI 38 cells)” value (Rhinovirus 7 [2]; [7]) was “+” and the “Day 3 (cytopathic effect of RV 7 on WI 38 cells)” value (Rhinovirus 7 [2]; [8]) was “−”. For the same compound, the “Day 5 (cytopathic effect of RV 7 on WI 38 cells)” value (Rhinovirus 7 [2]; [8]) was “+”, the “Day 7 (cytopathic effect of RV 7 on WI 38 cells)” value (Rhinovirus 7 [2]; [8]) was “+” and the “Day 3 (cytopathic effect of RV 7 on WI 38 cells)” value (Rhinovirus 7 [2]; [9]) was “−”. For the same compound, the “Day 5 (cytopathic effect of RV 7 on WI 38 cells)” value (Rhinovirus 7 [2]; [9]) was “−”, the “Day 7 (cytopathic effect of RV 7 on WI 38 cells)” value (Rhinovirus 7 [2]; [9]) was “−” and the “Day 3 (cytopathic effect of RV 7 on WI 38 cells)” value (Rhinovirus 7 [2]; [10]) was “−”. The “Day 5 (cytopathic effect of RV 7 on WI 38 cells)” value (Rhinovirus 7 [2]; [10]) was “−”, the “Day 7 (cytopathic effect of RV 7 on WI 38 cells)” value (Rhinovirus 7 [2]; [10]) was “−” and the “Inactivation of RV 7” value (Rhinovirus 7 [2]; 0.005% hydrogen peroxide, 60 min of incubation, RV 7 10^−3 dilution) was “able to inactivate”. The “Inactivation of RV 7” value (Rhinovirus 7 [2]; 0.05% (20 mM) H2O2, all RV 7 concentrations, already after 15 min of incubation) was “able to inactivate”, the “Day 3 (cytopathic effect of RV 7 on WI 38 cells)” value (Rhinovirus 7 [2]; [11]) was “−” and the “Day 5 (cytopathic effect of RV 7 on WI 38 cells)” value (Rhinovirus 7 [2]; [11]) was “−”. The “Day 7 (cytopathic effect of RV 7 on WI 38 cells)” value (Rhinovirus 7 [2]; [11]) was “−”, the “Day 3 (cytopathic effect of RV 7 on WI 38 cells)” value (Rhinovirus 7 [2]; [12]) was “−” and the “Day 5 (cytopathic effect of RV 7 on WI 38 cells)” value (Rhinovirus 7 [2]; [12]) was “−”. For the same compound, the “Day 7 (cytopathic effect of RV 7 on WI 38 cells)” value (Rhinovirus 7 [2]; [12]) was “−”, the “Day 3 (cytopathic effect of RV 7 on WI 38 cells)” value (Rhinovirus 7 [2]; [13]) was “−” and the “Day 5 (cytopathic effect of RV 7 on WI 38 cells)” value (Rhinovirus 7 [2]; [13]) was “−”. For the same compound, the “Day 7 (cytopathic effect of RV 7 on WI 38 cells)” value (Rhinovirus 7 [2]; [13]) was “−”, the “Day 3 (cytopathic effect of RV 7 on WI 38 cells)” value (Rhinovirus 7 [2]; [14]) was “−” and the “Day 5 (cytopathic effect of RV 7 on WI 38 cells)” value (Rhinovirus 7 [2]; [14]) was “−”. The “Day 7 (cytopathic effect of RV 7 on WI 38 cells)” value (Rhinovirus 7 [2]; [14]) was “−”, the “Day 3 (cytopathic effect of RV 7 on WI 38 cells)” value (Rhinovirus 7 [2]; [15]) was “−” and the “Day 5 (cytopathic effect of RV 7 on WI 38 cells)” value (Rhinovirus 7 [2]; [15]) was “−”. For the same compound, the “Day 7 (cytopathic effect of RV 7 on WI 38 cells)” value (Rhinovirus 7 [2]; [15]) was “−”, the “Day 3 (cytopathic effect of RV 7 on WI 38 cells)” value (Rhinovirus 7 [2]; [16]) was “−” and the “Day 5 (cytopathic effect of RV 7 on WI 38 cells)” value (Rhinovirus 7 [2]; [16]) was “−”. The “Day 7 (cytopathic effect of RV 7 on WI 38 cells)” value (Rhinovirus 7 [2]; [16]) was “−”, the “Reversibility of the inactivation of RV 7” value (Rhinovirus 7 [2]; Glucose Oxidase or 0.05% hydrogen peroxide solution, 7 days of incubation, no sign of recovery) was “irreversible” and the “Infection of WI 38 cells after 2 days of inoculation” value (Rhinovirus 7 [3]) was 1+. The “Infection of WI 38 cells after 10 days of inoculation” value (Rhinovirus 7 [3]) was 1+ and 2+, the “Infection of WI 38 cells after 2 days of inoculation” value (Rhinovirus 8) was 1+ and the “Infection of WI 38 cells after 10 days of inoculation” value (Rhinovirus 8) was 3+. The “Effect on WI 38 cells after 2 days” value (WI 38 cells [4]) was “Tox” and the “Effect on WI 38 cells after 10 days” value (WI 38 cells [4]) was “tox”.
